Experimental data from patent US8569481B2, “Capture compounds, collections thereof and methods for analyzing the proteome and complex compositions” (Pharmaceuticals, Inc., priority 2001, dated 2013).

Target: Cytochrome C (Bos taurus, UniProt P62894)
Test: Time course reaction of cytochrome C with a non-specific capture compound, analyzed by MALDI-TOF mass spectrometry
Format: binding
Description: Four different capture compounds (designated HKC 1341 (2,5-dioxopyrrolidin-1-yl acetate), HKC 1343 (2,5-dioxopyrrolidin-1-yl 4-(hydroxybis(4-methoxyphenyl)methyl)benzoate), HKC 1349 (1-(4-((3-(2-hydroxyethoxy)phenyl)(phenyl)(3-phenylpropoxy)methyl)benzoyl)-1H-pyrrole-2,5-dione), and HKC 1365 (3-((4-((2,5-dioxopyrrolidin-1-yloxy)carbonyl)phenyl)diphenylmethoxy)propane-1,2-diyl dipalmitate)) were reacted individually with Cytochrome C (accession number: P00006, FIG. 20c). The capture experiments were analyzed using MALDI-TOF Mass Spectrometry. Binding was performed in 20 μL sample volumes with 5 μM Cytochrome C concentrations in 25 mM HEPES buffer solution, pH 7.0. The trityl-based capture compounds were added to the protein solution at a 10 μM concentration. […] The reaction was quenched using 1 μL of a 100 mM TRIZMA base solution. The capture compound-protein binding mixture was prepared for mass spectrometry analysis by mixing a 1 μL aliquot of the binding reaction with 1 μL of a 10 mg/mL sinapinic acid in 30% aqueous acetonitrile. The sample was deposited as a […] spot on the surface of mass target plates and subsequently air-dried before mass spectrometric analyses.

Cytochrome C, sequence (P62894 whole entry): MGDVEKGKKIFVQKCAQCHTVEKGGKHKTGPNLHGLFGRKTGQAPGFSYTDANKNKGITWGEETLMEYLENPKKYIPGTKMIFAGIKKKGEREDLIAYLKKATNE

modifications of cytochrome C resulting from binding of the capture compound (after 30 minutes (middle spectrum, FIG. 20f)): 1-9
modifications of cytochrome C resulting from binding of the capture compound (time 0 (top spectrum, FIG. 20f)): no modification
Compound: CC(=O)ON1C(=O)CCC1=O [HKC 1341, 2,5-dioxopyrrolidin-1-yl acetate]
